Laboratory results from US20060199866A1, “Combination of desoxypeganine and mecamylanine for the treatment of alcohol abuse” (priority 2003, published 2006).

Key:
healthy probands = settings: administered two hours prior to consumption of alcoholic beverages; cited from earlier work
[1] = cited from earlier work
female AA rats = assay: Reduction of alcohol consumption and alcohol preference in alcohol-preferring AA rats (free choice between water and 10% v/v ethanol); assay type: in vivo, rat; settings: for Alcohol solution consumed: 10% aqueous ethanol
Excerpt: The “AA” strain of rats, bred in Finland, has a genetically determined preference for alcohol, which means that even without pre-treatment with alcohol the animals, when given free choice, prefer alcohol-containing liquids, to alcohol-free liquids to satisfy their fluid requirement. This strain has therefore been used in numerous studies on the pharmacology of alcohol and is extremely well characterized.
Female AA rats (tested for alcohol preference and made available by the Public Health Institute in Helsinki) were housed individually and had free access to standard feed (Altromin 1324 granulate), the ambient temperature was 24±1° C. and the light-dark change was 12/12 hours (the dark period lasting from 6 p.m. to 6 a.m. Each cage contained two identical drinking bottles, of which one contained pure water and the other contained aqueous ethanol (10% v/v). During the 12-hour dark period the animals had access to the drinking bottles and during this period had free choice between the two solutions. To prevent the animals from becoming accustomed to a particular position in the cage, the positions of the bottles were changed daily. Prior to start of the tests, the animals were granted an adaptation phase until a largely constant alcohol and water consumption was ensured.
Deoxypeganine hydrochloride (called “DOP” in the following) was obtained from the Institute for the Pharmacology of Plants (Taschkent, Usbekistan) and supplied by the firm of LTS Lohmann Therapie-Systeme (Andemach, Germany) after checking for identity and purity. Mecamylamine was obtained as a commercial preparation from Sigma-Aldrich GmbH (Munich).
Treatment of the test animals always took place immediately prior to the start of the dark period. Mecamylamine was dissolved in 0.9% aqueous saline and a volume of 5 ml/kg body weight was administered by intraperitoneal injection. DOP was applied as an aqueous solution with a volume of 10 ml/kg by a probang.
In the case of combination treatments, this administration took place within a period of less than 10 minutes. Two treatment-free days were always interposed prior to and following the treatment days.
The parameters recorded were consumption of alcohol, consumption of water and consumption of feed (each in grams), as well as alcohol preference, calculated using the formula: [formula]
The target parameters were in each case traced during the 12 hours of the dark period following treatment, intermediate results were recorded after the first 4 hours and final results after 12 hours. Statistical evaluation of the test data was performed using the t-test for dependent values. The results in respect of consumption of alcohol and alcohol preference are summarized in FIGS. 1 and 2 as well as in Tables 1 and 2.

[2] = system: extracellular dopamine concentration in the nucleus accumbens; settings: nucleus accumbens of the rat; baseline dopamine release not impaired; cited from earlier work
monoamine oxidase A = molecular target: T1, monoamine oxidase A (Homo sapiens, UniProt P21397); settings: cited from earlier work
T1 sequence (P21397 1-527): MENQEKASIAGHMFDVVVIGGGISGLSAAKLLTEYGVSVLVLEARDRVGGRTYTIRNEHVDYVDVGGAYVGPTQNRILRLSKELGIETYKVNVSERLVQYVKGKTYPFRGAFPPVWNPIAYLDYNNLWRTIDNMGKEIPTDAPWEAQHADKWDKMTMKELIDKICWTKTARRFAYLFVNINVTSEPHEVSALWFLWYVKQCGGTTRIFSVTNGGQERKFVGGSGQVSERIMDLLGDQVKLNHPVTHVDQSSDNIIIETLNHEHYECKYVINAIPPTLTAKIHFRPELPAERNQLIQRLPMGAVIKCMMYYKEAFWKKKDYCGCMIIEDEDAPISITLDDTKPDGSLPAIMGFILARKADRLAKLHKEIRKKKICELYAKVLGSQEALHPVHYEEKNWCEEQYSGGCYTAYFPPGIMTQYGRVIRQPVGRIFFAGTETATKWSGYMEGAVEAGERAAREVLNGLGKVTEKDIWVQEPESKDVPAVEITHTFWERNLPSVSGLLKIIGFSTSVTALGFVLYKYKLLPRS

[3] = system: neuronal nicotinic acetylcholine receptors (NACHRs); settings: in pharmacologically relevant concentrations; cited from earlier work
[4] = Trial 2, Mec 1 mg/kg i.p., After 4 hours
[5] = Trial 2, Mec 1 mg/kg i.p., After 8 hours (subsequent eight hours)
[6] = Trial 2, Mec 1 mg/kg i.p., Total (12 hours)
[7] = Trial 1, DOP 20 mg/kg p.o., After 4 hours
[8] = Trial 1, DOP 20 mg/kg p.o., After 8 hours (subsequent eight hours)
[9] = Trial 1, DOP 20 mg/kg p.o., Total (12 hours)
[10] = Trial 2, DOP 20 mg/kg p.o., After 4 hours
[11] = Trial 2, DOP 20 mg/kg p.o., After 8 hours (subsequent eight hours)
[12] = Trial 2, DOP 20 mg/kg p.o., Total (12 hours)

Question: For CNC1(C)C2CCC(C2)C1(C)C (racemic) [Mec, reference compound], which “Effect on the centrally stimulating psychotropic effect of alcohol” value (healthy probands) is on record?
Answer: reduced the centrally stimulating psychotropic effect

Question: What about the Oral bioavailability [1] of the same compound?
Answer: ~100%

Question: What about the Alcohol solution consumed (female AA rats; [4]) of the same compound?
Answer: 5.4 ± 0.5 gram

Question: And the Alcohol solution consumed (female AA rats; [5])?
Answer: 10.1 ± 0.4 gram

Question: What about the Alcohol solution consumed (female AA rats; [6]) of the same compound?
Answer: 15.5 ± 0.5 gram

Question: What about the “Effect on consumption of alcohol and alcohol preference” value (“Effect on consumption” for short) (female AA rats; Mecamylamine 1 mg/kg i.p. administered singly) of the same compound?
Answer: no effect

Question: What about the “Effect on consumption” value (female AA rats; Mecamylamine 1 mg/kg i.p. combined with DOP 20 mg/kg p.o.) of the same compound?
Answer: potentiated the effect of DOP on both parameters

Question: And the Alcohol preference (female AA rats; [4])?
Answer: 85.3 ± 4.2%

Question: And the Alcohol preference (female AA rats; [5])?
Answer: 87.8 ± 3.1%

Question: And the Alcohol preference (female AA rats; [6])?
Answer: 86.3 ± 2.6%

Question: What about the “Effect on consumption” value (female AA rats; mecamylamine 0.5 mg/kg i.p. combined with DOP 20 mg/kg p.o.) of the same compound?
Answer: without effect with regard to alcohol

Question: What about the “Effect on consumption” value (female AA rats; mecamylamine 0.75 mg/kg i.p. combined with DOP 20 mg/kg p.o.) of the same compound?
Answer: without effect with regard to alcohol

Question: What about the “Effect on consumption” value (female AA rats; mecamylamine dosage increased to 1.5 mg/kg i.p., combined with DOP 20 mg/kg p.o.) of the same compound?
Answer: potentiating effect could not be increased further

Question: What about the “Blockade of alcohol-induced increase in extracellular dopamine concentration” value [2] of the same compound?
Answer: completely blocks

Question: For c1ccc2c(c1)CN1CCCC1=N2 [DOP, 1,2,3,9-tetrahydropyrrollo[2,1-b]chinazoline], which “Inhibition of monoamine oxidase A” value (monoamine oxidase A) is on record?
Answer: inhibits monoamine oxidase A

Question: What about the Alcohol solution consumed (female AA rats; [7]) of the same compound?
Answer: 5.2 ± 0.6 gram

Question: What about the Alcohol solution consumed (female AA rats; [8]) of the same compound?
Answer: 10.2 ± 0.6 gram

Question: What about the Alcohol solution consumed (female AA rats; [9]) of the same compound?
Answer: 15.4 ± 1.1 gram

Question: And the Alcohol solution consumed (female AA rats; [10])?
Answer: 5.8 ± 0.6 gram

Question: And the Alcohol solution consumed (female AA rats; [11])?
Answer: 10.7 ± 0.5 gram

Question: And the Alcohol solution consumed (female AA rats; [12])?
Answer: 16.6 ± 0.6 gram

Question: What about the “Effect on consumption” value (female AA rats; DOP 20 mg/kg p.o., preferably within the first 4 hours after administration) of the same compound?
Answer: lowered the consumption of alcohol and alcohol preference

Question: What about the Alcohol preference (female AA rats; [7]) of the same compound?
Answer: 57.4 ± 7.1%

Question: What about the Alcohol preference (female AA rats; [8]) of the same compound?
Answer: 82.0 ± 4.0%

Question: What about the Alcohol preference (female AA rats; [9]) of the same compound?
Answer: 70.5 ± 4.5%

Question: What about the Alcohol preference (female AA rats; [10]) of the same compound?
Answer: 55.6 ± 7.6%

Question: And the Alcohol preference (female AA rats; [11])?
Answer: 88.0 ± 2.1%

Question: And the Alcohol preference (female AA rats; [12])?
Answer: 72.7 ± 4.3%

Question: And the “Binding to NACHRs” value [3]?
Answer: does not bind to NACHRs

Question: With O=C1CC[C@@]2(O)[C@H]3Cc4ccc(O)c5c4[C@@]2(CCN3CC2CC2)[C@H]1O5 [naltrexone] as the compound, how does the Oral bioavailability [1] read?
Answer: approx. 5%
